From ChEMBL document CHEMBL4152355, “Novel multi-target compounds in the quest for new chemotherapies against Alzheimer's disease: An experimental and theoretical study” (Bioorg Med Chem, 2018)
Active and inactive are the calls of the source. The rule behind the calls is not given here.

Tests used:
Beta-secretase 1 [1] = molecular target: T1, Beta-secretase 1 (Homo sapiens, UniProt P56817); experiment: Inhibition of BACE 1 (unknown origin) at 50 uM using Rh-EVNLDAEFK-Quencher as substrate after 1 hr by FRET assay relative to control
Beta-secretase 1 [2] = molecular target: T1, Beta-secretase 1; experiment: Inhibition of BACE 1 (unknown origin) using 250 nM of Rh-EVNLDAEFK-Quencher as substrate after 1 hr by FRET assay
Beta-secretase 1 [3] = molecular target: T1, Beta-secretase 1; experiment: Inhibition of BACE 1 (unknown origin) using 500 nM of Rh-EVNLDAEFK-Quencher as substrate after 1 hr by FRET assay
Beta-secretase 1 [4] = molecular target: T1, Beta-secretase 1; experiment: Inhibition of BACE 1 (unknown origin) at 10 to 50 uM using Rh-EVNLDAEFK-Quencher as substrate after 1 hr by FRET assay relative to control
[5] = Metal chelating activity assessed as compound-Cu2+ adduct formation by spectrophotometric analysis
[6] = Metal chelating activity assessed as compound-Cu2+ adduct formation at 20 uM by spectrophotometric titration analysis
[7] = Metal chelating activity assessed as inhibition of Cu2+ induced amyloid beta (1 to 40) aggregation by measuring decrease in ROS production at 2 equiv after 75 mins by fluorescence assay
[8] = Antioxidant activity assessed as AAPH radical scavenging activity at 1 to 16 uM by ORAC assay; assay type: functional
[9] = Inhibition of Cu2+ induced amyloid beta (1 to 40) fibril aggregation assessed as fluorescence emission at 100 uM measured on day 3 by thioflavin-T based assay (reference value: 33.64 +/- 5.80)
[10] = Inhibition of Cu2+ induced amyloid beta (1 to 40) fibril aggregation assessed as aggregation level at 100 uM measured on day 3 by UV-visible turbidity method (reference value: 100 +/- 17.24%); parameters: scale not given: the % may be the effect or the level left
[11] = Inhibition of Cu2+ induced amyloid beta (1 to 40) fibril aggregation assessed as fluorescence emission at 100 uM measured on day 7 by thioflavin-T based assay (reference value: 181.04 +/- 1.74)
[12] = Inhibition of Cu2+ induced amyloid beta (1 to 40) fibril aggregation assessed as aggregation level at 100 uM measured on day 7 by UV-visible turbidity method (reference value: 100 +/- 0.96%); parameters: scale not given: the % may be the effect or the level left
[13] = Inhibition of Cu2+ induced amyloid beta (1 to 40) fibril aggregation assessed as fluorescence emission at 100 uM measured on day 10 by thioflavin-T based assay (reference value: 412.11 +/- 35.93)
[14] = Inhibition of Cu2+ induced amyloid beta (1 to 40) fibril aggregation assessed as aggregation level at 100 uM measured on day 10 by UV-visible turbidity method (reference value: 100 +/- 8.72%); parameters: scale not given: the % may be the effect or the level left
[15] = molecular target: Amyloid-beta precursor protein (Homo sapiens) (UniProt P05067); experiment: Inhibition of self-induced amyloid beta (1 to 40) (unknown origin) fibril aggregation assessed as fluorescence emission at 100 uM measured on day 3 by thioflavin-T based assay
[16] = molecular target: Amyloid-beta precursor protein (Homo sapiens) (UniProt P05067); experiment: Inhibition of self-induced amyloid beta (1 to 40) (unknown origin) fibril aggregation assessed as aggregation level at 100 uM measured on day 3 by UV-visible turbidity method; parameters: scale not given: the % may be the effect or the level left
[17] = molecular target: Amyloid-beta precursor protein (Homo sapiens) (UniProt P05067); experiment: Inhibition of self-induced amyloid beta (1 to 40) (unknown origin) fibril aggregation assessed as fluorescence emission at 100 uM measured on day 7 by thioflavin-T based assay
[18] = molecular target: Amyloid-beta precursor protein (Homo sapiens) (UniProt P05067); experiment: Inhibition of self-induced amyloid beta (1 to 40) (unknown origin) fibril aggregation assessed as aggregation level at 100 uM measured on day 7 by UV-visible turbidity method; parameters: scale not given: the % may be the effect or the level left
[19] = molecular target: Amyloid-beta precursor protein (Homo sapiens) (UniProt P05067); experiment: Inhibition of self-induced amyloid beta (1 to 40) (unknown origin) fibril aggregation assessed as fluorescence emission at 100 uM measured on day 10 by thioflavin-T based assay; parameters: reference not given here
[20] = molecular target: Amyloid-beta precursor protein (Homo sapiens) (UniProt P05067); experiment: Inhibition of self-induced amyloid beta (1 to 40) (unknown origin) fibril aggregation assessed as aggregation level at 100 uM measured on day 10 by UV-visible turbidity method; parameters: scale not given: the % may be the effect or the level left
[21] = Disaggregation of Cu2+ induced amyloid beta (1 to 40) preformed fibrils assessed as fluorescence emission at 100 uM after 4 days by thioflavin-T based assay (reference value: 178.07 +/- 17.24)
[22] = Disaggregation of Cu2+ induced amyloid beta (1 to 40) preformed fibrils assessed as aggregation level at 100 uM after 4 days by UV-visible turbidity method (reference value: 143.11 +/- 0.76%)
[23] = Disaggregation of Cu2+ induced amyloid beta (1 to 40) preformed fibrils assessed as fluorescence emission at 100 uM after 12 days by thioflavin-T based assay (reference value: 150.21 +/- 2.32)
[24] = Disaggregation of Cu2+ induced amyloid beta (1 to 40) preformed fibrils assessed as aggregation level at 100 uM after 12 days by UV-visible turbidity method (reference value: 120.73 +/- 1.86%)
[25] = molecular target: Amyloid-beta precursor protein (Homo sapiens) (UniProt P05067); experiment: Disaggregation of self-induced amyloid beta (1 to 40) (unknown origin) preformed fibrils assessed as fluorescence emission at 100 uM after 4 days by thioflavin-T based assay; parameters: reference not given here
[26] = molecular target: Amyloid-beta precursor protein (Homo sapiens) (UniProt P05067); experiment: Disaggregation of self-induced amyloid beta (1 to 40) (unknown origin) preformed fibrils assessed as aggregation level at 100 uM after 4 days by UV-visible turbidity method
[27] = molecular target: Amyloid-beta precursor protein (Homo sapiens) (UniProt P05067); experiment: Disaggregation of self-induced amyloid beta (1 to 40) (unknown origin) preformed fibrils assessed as fluorescence emission at 100 uM after 12 days by thioflavin-T based assay; parameters: reference not given here
[28] = molecular target: Amyloid-beta precursor protein (Homo sapiens) (UniProt P05067); experiment: Disaggregation of self-induced amyloid beta (1 to 40) (unknown origin) preformed fibrils assessed as aggregation level at 100 uM after 12 days by UV-visible turbidity method
[29] = molecular target: Amyloid-beta precursor protein (Homo sapiens) (UniProt P05067); experiment: Induction of amyloid beta (1 to 40) (unknown origin) amorphous aggregation at 100 uM after 10 days
[30] = Toxicity in Tetrahymena thermophila assessed as decrease in viability after 48 hrs by MTT assay; assay type: organism-based; conditions: Tetrahymena thermophila cells, read-out: LD50
Tetrahymena thermophila = experiment: Toxicity in Tetrahymena thermophila assessed as decrease in viability after 48 hrs by MTT assay relative to resveratrol; assay type: organism-based; conditions: in vivo
[31] = Cytotoxicity against human HEK293 cells assessed as decrease in cell viability after 48 hrs by MTT assay; assay type: cell-based; conditions: read-out: LD50
HEK293 = experiment: Cytotoxicity against human HEK293 cells assessed as decrease in cell viability after 48 hrs by MTT assay relative to resveratrol; assay type: cell-based; conditions: hek293, 48 h
[32] = Antioxidant activity assessed as AAPH radical scavenging activity up to 64 uM by ORAC assay; assay type: functional

T1 sequence (P56817 whole entry): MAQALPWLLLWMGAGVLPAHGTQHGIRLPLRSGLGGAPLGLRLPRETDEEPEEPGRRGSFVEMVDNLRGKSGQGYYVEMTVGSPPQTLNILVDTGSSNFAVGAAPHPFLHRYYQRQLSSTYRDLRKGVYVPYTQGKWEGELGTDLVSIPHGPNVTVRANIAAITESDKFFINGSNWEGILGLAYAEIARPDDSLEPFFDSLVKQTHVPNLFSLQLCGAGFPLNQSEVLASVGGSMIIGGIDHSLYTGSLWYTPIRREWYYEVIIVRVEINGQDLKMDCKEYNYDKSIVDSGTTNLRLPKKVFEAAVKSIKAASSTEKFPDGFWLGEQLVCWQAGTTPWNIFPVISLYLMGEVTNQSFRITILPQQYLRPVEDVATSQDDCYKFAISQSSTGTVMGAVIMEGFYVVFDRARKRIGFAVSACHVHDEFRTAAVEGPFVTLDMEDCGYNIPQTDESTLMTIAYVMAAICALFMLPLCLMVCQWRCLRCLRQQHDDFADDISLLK
Chain of Amyloid-beta precursor protein (Homo sapiens) (P05067 whole entry): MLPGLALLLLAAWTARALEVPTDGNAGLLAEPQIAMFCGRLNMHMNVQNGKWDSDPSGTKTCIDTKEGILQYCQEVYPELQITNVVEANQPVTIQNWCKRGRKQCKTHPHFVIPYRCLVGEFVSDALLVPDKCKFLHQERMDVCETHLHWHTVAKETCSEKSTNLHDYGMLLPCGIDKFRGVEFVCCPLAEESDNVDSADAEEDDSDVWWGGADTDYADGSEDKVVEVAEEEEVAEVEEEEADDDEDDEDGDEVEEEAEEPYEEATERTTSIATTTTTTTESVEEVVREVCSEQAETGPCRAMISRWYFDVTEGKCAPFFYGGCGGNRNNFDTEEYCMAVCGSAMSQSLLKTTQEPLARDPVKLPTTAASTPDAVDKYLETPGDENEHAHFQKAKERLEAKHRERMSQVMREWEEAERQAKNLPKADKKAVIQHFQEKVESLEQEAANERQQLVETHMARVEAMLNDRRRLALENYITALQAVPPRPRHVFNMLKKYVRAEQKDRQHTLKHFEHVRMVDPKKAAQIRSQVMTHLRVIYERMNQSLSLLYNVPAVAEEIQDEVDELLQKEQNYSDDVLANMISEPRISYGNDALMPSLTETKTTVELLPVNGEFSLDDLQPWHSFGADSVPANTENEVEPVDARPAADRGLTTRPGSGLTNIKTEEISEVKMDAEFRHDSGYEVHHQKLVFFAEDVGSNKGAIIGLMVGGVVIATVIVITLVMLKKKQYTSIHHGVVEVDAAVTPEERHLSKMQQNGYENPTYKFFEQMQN

Structure (SMILES)	inhibition (Beta-secretase 1 [1])	IC50 (Beta-secretase 1 [2])	IC50 (Beta-secretase 1 [3])	logKa [6]	inhibition [7]	Flu intensity [9]	Activity [10]	Flu intensity [11]	Activity [12]	Flu intensity [13]	Activity [14]	Flu intensity [15]	Activity [16]	Flu intensity [17]	Activity [18]	Flu intensity [19]	Activity [20]	Flu intensity [21]	Activity [22]	Flu intensity [23]	other results
Cl.Nc1ncnc2c1ncn2CCNCC/N=C/c1ccc(O)cc1O	59.2%	41.4 µM	42 µM	14.8	97.5%	100	299%	172	94.8%	135	32.7%	247	98.2%	356	90.9%	367	89.8%	60.9	48.9%	38.4	inhibition (Beta-secretase 1 [4]): < 50%; Activity [5]: Active; ORAC (Trolox equivalents) [8]: 2.39; Activity [24]: 30.9%; Flu intensity [25]: 246; Activity [26]: 96.3%; Flu intensity [27]: 226; Activity [28]: 88.4%; Activity [29]: 6 to 33%; LC50 at 48 h [30]: 811 µM; fold change (FC) (Tetrahymena thermophila): 3.4; CC50 at 48 h [31]: 336 µM; fold change (FC) (HEK293): 4.7
O=C(NCCNc1ccnc2cc(Cl)ccc12)c1cnccn1	91%	1.7 µM	9.9 µM	inactive	36.2%	41.7	124%	245	135%	195	47.2%	313	125%	707	181%	767	188%	109	87.7%	71.7	Activity [32]: inactive; Activity [24]: 57.6%; Flu intensity [25]: 289; Activity [26]: 113%; Flu intensity [27]: 224; Activity [28]: 87.8%; CC50 at 48 h [31]: 113 µM; fold change (FC) (HEK293): 1.6
Oc1ccc(/C=N/CCn2ccc3ccccc32)c(O)c1	100%	4.4 µM	5.7 µM	13.4	68.5%	243	722%	203	112%	155	37.6%	273	109%	336	86%	298	73%	73	58.6%	59	inhibition (Beta-secretase 1 [4]): < 50%; Activity [5]: Active; ORAC (Trolox equivalents) [8]: 5.22; Activity [24]: 47.5%; Flu intensity [25]: 213; Activity [26]: 83.2%; Flu intensity [27]: 183; Activity [28]: 71.8%; Activity [29]: 6 to 33%; LC50 at 48 h [30]: 556 µM; fold change (FC) (Tetrahymena thermophila): 2.3; CC50 at 48 h [31]: 193 µM; fold change (FC) (HEK293): 2.7
